Measured values reported in ChEMBL document CHEMBL5649167, “The SUV4-20 inhibitor A-196 verifies a role for epigenetics in genomic integrity” (Nat Chem Biol, 2017).
Activity calls are given as the source filed them. The rule behind the calls is not given here.

How the values were obtained:
Embryonic stem cell = experiment: Antiproliferative activity against mouse Embryonic stem cell assessed as […] in H4K20me3 at 10 uM incubated for 3 days by immunofluorescence analysis; type: functional, cell-based; details: time 3.0 day
[1] = target: Adenosine receptor A1 (Homo sapiens) (UniProt P30542); experiment: Inhibition of human Adenosine receptor A1 at 10 uM relative to control
[2] = target: Adenosine receptor A2a (Homo sapiens) (UniProt P29274); experiment: Inhibition of human Adenosine receptor A2a at 10 uM relative to control
[3] = target: Adenosine receptor A3 (Homo sapiens) (UniProt P0DMS8); experiment: Inhibition of human Adenosine receptor A3 at 10 uM relative to control
[4] = target: Kappa-type opioid receptor (Homo sapiens) (UniProt P41145); experiment: Inhibition of human Kappa-type opioid receptor at 10 uM relative to control
[5] = target: Delta-type opioid receptor (Homo sapiens) (UniProt P41143); experiment: Inhibition of human Delta-type opioid receptor at 10 uM relative to control
[6] = target: Neuromedin-K receptor (Homo sapiens) (UniProt P29371); experiment: Inhibition of human Neuromedin-K receptor at 10 uM relative to control
[7] = target: T1, Muscarinic acetylcholine receptor M1 (Homo sapiens) (UniProt P11229); experiment: Inhibition of human Muscarinic acetylcholine receptor M1 at 10 uM relative to control
T1 sequence (whole entry): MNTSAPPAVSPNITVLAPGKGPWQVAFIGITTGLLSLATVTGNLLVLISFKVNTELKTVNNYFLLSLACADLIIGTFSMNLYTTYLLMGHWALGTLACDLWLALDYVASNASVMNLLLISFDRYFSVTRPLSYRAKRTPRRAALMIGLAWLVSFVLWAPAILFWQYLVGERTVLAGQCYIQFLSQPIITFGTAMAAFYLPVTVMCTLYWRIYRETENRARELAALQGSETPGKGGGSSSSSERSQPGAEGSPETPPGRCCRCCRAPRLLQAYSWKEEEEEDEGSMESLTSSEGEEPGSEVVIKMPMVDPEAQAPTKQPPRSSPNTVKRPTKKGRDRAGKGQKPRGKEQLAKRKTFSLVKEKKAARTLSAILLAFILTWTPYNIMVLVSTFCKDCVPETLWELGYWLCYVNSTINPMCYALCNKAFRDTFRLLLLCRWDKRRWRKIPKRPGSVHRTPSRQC

[8] = target: Melanocortin receptor 4 (Homo sapiens) (UniProt P32245); experiment: Inhibition of human Melanocortin receptor 4 at 10 uM relative to control
[9] = target: Type-1 angiotensin II receptor (Homo sapiens) (UniProt P30556); experiment: Inhibition of human AT1 at 10 uM relative to control
[10] = target: Prostaglandin E2 receptor EP4 subtype (Homo sapiens) (UniProt P35408); experiment: Inhibition of human Prostanoid EP4 receptor at 10 uM relative to control
[11] = target: 5-hydroxytryptamine receptor 7 (Homo sapiens) (UniProt P34969); experiment: Inhibition of human 5-HT7 at 10 uM relative to control
[12] = target: Sodium-dependent serotonin transporter (Homo sapiens) (UniProt P31645); experiment: Inhibition of human 5-HT transporter at 10 uM relative to control
Homo sapiens [13] = organism: Homo sapiens; experiment: Inhibition of human 5-HT3 at 10 uM relative to control
[14] = target: Vasopressin V1a receptor (Homo sapiens) (UniProt P37288); experiment: Inhibition of human AVPR V1a at 10 uM relative to control
[15] = target: Galanin receptor type 2 (Homo sapiens) (UniProt O43603); experiment: Inhibition of human GAL2 at 10 uM relative to control
Homo sapiens [16] = organism: Homo sapiens; experiment: Inhibition of human SKCa channel at 10 uM relative to control
Rattus norvegicus = organism: Rattus norvegicus; experiment: Inhibition of Rat Somatostatin at 10 uM relative to control
[17] = target: Histamine H1 receptor (Homo sapiens) (UniProt P35367); experiment: Inhibition of human HH1R at 10 uM relative to control
[18] = target: 5-hydroxytryptamine receptor 2A (Homo sapiens) (UniProt P28223); experiment: Inhibition of human 5-HT2A at 10 uM relative to control
[19] = target: 5-hydroxytryptamine receptor 6 (Homo sapiens) (UniProt P50406); experiment: Inhibition of human 5-HT6 at 10 uM relative to control
[20] = target: Vasoactive intestinal polypeptide receptor 1 (Homo sapiens) (UniProt P32241); experiment: Inhibition of human VPAC1 at 10 uM relative to control
[21] = target: Neuropeptide Y receptor type 2 (Homo sapiens) (UniProt P49146); experiment: Inhibition of human NPY-Y2 receptor at 10 uM relative to control
[22] = target: 5-hydroxytryptamine receptor 2A (Homo sapiens) (UniProt P28223); experiment: Inhibition of human 5-HT2A receptor expressed in HEK293T cells at 10 uM relative to control; type: cell-based
[23] = target: Beta-1 adrenergic receptor (Homo sapiens) (UniProt P08588); experiment: Inhibition of human Beta-1 adrenergic receptor expressed in Cricetulus griseus Flp-In-CHO cells at 10 uM relative to control; type: cell-based
[24] = target: Beta-2 adrenergic receptor (Homo sapiens) (UniProt P07550); experiment: Inhibition of human Beta-2 adrenergic receptor expressed in human Flp-In-293 cells at 10 uM relative to control; type: cell-based
[25] = target: Histamine H1 receptor (Homo sapiens) (UniProt P35367); experiment: Inhibition of human histamine H1 receptor expressed in stable HEK cells at 10 uM relative to control; type: cell-based
[26] = target: Mu-type opioid receptor (Homo sapiens) (UniProt P35372); experiment: Inhibition of human Mu-type opioid receptor expressed in stable HEK cells at 10 uM relative to control; type: cell-based
[27] = target: 5-hydroxytryptamine receptor 2C (Homo sapiens) (UniProt P28335); experiment: Inhibition of human 5-HT2C receptor expressed in HEK293T cells at 10 uM relative to control; type: cell-based
[28] = target: Histamine H3 receptor (Homo sapiens) (UniProt Q9Y5N1); experiment: Inhibition of human Histamine H3 receptor expressed in human Flp-In-293 cells at 10 uM relative to control; type: cell-based
[29] = target: T1, Muscarinic acetylcholine receptor M1 (Homo sapiens); experiment: Inhibition of human Muscarinic acetylcholine receptor M1 expressed in stable Cricetulus griseus CHO cells at 10 uM relative to control; type: cell-based
[30] = target: D(3) dopamine receptor (Homo sapiens) (UniProt P35462); experiment: Inhibition of human D(3) dopamine receptor expressed in HEK293T cells at 10 uM relative to control; type: cell-based
[31] = target: Sigma intracellular receptor 2 (Homo sapiens) (UniProt Q5BJF2); experiment: Inhibition of human Sigma intracellular receptor 2 at 10 uM relative to control; type: cell-based
[32] = target: D(4) dopamine receptor (Homo sapiens) (UniProt P21917); experiment: Inhibition of human D(4) dopamine receptor in stable HEK cells at 10 uM relative to control; type: cell-based
[33] = target: 5-hydroxytryptamine receptor 6 (Homo sapiens) (UniProt P50406); experiment: Inhibition of human 5-HT6 expressed in stable HEK cells at 10 uM relative to control; type: cell-based
[34] = target: Alpha-1A adrenergic receptor (Homo sapiens) (UniProt P35348); experiment: Inhibition of human Alpha-1A adrenergic receptor at 10 uM relative to control
[35] = target: Muscarinic acetylcholine receptor M4 (Homo sapiens) (UniProt P08173); experiment: Inhibition of human Muscarinic acetylcholine receptor M4 expressed in stable Cricetulus griseus CHO cells at 10 uM relative to control; type: cell-based

Chain of 5-hydroxytryptamine receptor 2A (Homo sapiens) (P28223 whole entry): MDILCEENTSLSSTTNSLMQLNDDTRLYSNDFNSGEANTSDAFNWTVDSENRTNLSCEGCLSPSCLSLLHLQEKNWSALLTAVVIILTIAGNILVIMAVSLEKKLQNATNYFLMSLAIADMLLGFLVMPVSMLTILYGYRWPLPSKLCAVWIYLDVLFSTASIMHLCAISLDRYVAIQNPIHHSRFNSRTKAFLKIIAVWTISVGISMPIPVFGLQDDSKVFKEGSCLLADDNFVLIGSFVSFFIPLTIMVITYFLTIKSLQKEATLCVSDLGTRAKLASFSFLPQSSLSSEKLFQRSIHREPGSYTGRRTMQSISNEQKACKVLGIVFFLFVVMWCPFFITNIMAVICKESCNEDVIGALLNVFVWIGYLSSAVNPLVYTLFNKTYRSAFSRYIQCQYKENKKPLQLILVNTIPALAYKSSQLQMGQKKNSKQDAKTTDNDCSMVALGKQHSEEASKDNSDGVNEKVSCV
Chain of 5-hydroxytryptamine receptor 6 (Homo sapiens) (P50406 whole entry): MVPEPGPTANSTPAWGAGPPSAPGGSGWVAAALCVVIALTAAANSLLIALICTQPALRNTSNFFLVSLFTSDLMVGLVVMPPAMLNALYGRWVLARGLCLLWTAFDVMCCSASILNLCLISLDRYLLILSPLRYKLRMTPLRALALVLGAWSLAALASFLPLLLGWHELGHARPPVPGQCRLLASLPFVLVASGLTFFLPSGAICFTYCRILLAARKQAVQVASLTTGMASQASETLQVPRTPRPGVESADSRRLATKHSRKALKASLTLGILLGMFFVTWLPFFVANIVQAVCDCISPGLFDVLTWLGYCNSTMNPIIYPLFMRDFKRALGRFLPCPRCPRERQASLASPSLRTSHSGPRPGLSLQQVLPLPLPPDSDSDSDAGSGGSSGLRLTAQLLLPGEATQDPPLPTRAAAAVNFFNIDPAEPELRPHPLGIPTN
Chain of Histamine H1 receptor (Homo sapiens) (P35367 whole entry): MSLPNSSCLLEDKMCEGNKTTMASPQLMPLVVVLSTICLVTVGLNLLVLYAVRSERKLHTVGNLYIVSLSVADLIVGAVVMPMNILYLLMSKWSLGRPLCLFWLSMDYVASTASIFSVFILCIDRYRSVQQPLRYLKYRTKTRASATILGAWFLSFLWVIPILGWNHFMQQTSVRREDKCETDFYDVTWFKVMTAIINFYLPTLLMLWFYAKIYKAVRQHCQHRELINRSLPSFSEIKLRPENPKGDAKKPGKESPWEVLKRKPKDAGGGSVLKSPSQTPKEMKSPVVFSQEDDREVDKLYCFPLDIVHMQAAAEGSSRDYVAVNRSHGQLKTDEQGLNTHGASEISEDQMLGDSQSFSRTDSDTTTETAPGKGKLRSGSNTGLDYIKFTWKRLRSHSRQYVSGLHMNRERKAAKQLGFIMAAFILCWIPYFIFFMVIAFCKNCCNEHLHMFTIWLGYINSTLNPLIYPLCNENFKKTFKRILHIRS
Chain of Prostaglandin E2 receptor EP4 subtype (Homo sapiens) (P35408 whole entry): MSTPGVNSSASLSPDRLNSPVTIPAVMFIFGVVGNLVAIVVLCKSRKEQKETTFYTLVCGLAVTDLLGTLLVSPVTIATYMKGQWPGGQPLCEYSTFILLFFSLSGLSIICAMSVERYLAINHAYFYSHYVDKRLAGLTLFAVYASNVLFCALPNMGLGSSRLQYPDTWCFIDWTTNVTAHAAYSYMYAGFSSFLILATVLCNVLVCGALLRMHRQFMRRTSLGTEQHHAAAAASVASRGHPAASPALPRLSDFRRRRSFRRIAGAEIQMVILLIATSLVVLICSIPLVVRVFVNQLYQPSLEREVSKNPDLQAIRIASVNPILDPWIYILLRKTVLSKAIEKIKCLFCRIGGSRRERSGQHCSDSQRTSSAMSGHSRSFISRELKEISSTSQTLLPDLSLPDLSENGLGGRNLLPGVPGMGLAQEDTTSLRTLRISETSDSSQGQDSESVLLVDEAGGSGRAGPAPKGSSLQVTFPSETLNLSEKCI
Chain of Sigma intracellular receptor 2 (Homo sapiens) (Q5BJF2 whole entry): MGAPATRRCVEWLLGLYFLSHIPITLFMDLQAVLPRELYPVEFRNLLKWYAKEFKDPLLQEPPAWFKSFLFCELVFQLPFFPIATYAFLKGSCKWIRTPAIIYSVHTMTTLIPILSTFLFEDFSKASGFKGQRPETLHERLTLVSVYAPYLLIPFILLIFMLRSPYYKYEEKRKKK
Chain of Mu-type opioid receptor (Homo sapiens) (P35372 whole entry): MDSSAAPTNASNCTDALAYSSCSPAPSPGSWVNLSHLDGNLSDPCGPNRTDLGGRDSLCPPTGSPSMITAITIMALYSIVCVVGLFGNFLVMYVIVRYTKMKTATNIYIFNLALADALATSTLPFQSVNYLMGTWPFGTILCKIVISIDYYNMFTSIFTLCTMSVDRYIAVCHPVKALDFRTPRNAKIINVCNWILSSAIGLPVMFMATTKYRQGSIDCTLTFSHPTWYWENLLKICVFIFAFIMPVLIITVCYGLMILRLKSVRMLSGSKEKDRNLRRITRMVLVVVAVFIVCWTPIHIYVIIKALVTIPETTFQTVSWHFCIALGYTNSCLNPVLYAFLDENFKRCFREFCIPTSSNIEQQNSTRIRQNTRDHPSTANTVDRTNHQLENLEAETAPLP
Chain of D(3) dopamine receptor (Homo sapiens) (P35462 whole entry): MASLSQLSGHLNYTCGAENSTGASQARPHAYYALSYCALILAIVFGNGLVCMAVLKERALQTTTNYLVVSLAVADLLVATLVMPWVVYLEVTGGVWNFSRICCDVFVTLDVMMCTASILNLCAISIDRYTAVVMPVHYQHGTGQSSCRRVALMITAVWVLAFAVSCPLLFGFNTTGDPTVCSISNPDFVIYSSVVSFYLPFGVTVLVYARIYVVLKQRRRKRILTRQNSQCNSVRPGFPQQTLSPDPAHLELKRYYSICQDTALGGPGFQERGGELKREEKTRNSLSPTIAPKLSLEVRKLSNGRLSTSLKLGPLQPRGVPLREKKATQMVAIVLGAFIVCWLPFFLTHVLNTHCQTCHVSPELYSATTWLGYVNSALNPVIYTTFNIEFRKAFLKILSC
Chain of Neuromedin-K receptor (Homo sapiens) (P29371 whole entry): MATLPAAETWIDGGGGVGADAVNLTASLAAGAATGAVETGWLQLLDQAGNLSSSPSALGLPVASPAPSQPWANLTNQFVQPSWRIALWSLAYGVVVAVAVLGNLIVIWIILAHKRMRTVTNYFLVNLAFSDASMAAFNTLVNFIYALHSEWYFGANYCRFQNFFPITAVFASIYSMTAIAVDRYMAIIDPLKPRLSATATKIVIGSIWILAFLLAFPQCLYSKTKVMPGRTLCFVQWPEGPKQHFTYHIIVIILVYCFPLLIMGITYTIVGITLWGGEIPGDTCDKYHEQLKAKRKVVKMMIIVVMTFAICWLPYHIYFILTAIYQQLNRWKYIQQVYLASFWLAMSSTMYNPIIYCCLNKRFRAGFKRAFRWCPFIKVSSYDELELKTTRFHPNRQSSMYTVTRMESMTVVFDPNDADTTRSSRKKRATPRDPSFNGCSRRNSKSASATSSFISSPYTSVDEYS
Chain of Adenosine receptor A3 (Homo sapiens) (P0DMS8 whole entry): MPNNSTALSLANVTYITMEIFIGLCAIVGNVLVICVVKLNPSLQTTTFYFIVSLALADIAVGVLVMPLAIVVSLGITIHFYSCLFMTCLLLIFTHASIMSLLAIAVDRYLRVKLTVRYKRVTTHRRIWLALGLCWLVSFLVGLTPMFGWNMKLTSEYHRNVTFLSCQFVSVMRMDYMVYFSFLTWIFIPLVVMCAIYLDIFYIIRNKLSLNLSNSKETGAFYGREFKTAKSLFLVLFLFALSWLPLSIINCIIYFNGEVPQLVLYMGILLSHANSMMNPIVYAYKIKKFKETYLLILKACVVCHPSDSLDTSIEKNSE
Chain of Kappa-type opioid receptor (Homo sapiens) (P41145 whole entry): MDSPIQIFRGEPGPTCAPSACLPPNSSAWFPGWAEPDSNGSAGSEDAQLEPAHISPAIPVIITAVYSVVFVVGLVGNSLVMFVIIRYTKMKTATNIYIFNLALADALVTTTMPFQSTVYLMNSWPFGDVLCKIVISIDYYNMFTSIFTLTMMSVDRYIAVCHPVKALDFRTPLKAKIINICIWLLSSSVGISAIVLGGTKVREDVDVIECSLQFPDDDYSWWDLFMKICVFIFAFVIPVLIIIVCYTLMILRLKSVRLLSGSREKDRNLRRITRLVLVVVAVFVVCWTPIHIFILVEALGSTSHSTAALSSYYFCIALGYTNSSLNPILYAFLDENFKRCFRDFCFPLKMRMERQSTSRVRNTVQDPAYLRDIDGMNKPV
Chain of Vasopressin V1a receptor (Homo sapiens) (P37288 whole entry, looked up): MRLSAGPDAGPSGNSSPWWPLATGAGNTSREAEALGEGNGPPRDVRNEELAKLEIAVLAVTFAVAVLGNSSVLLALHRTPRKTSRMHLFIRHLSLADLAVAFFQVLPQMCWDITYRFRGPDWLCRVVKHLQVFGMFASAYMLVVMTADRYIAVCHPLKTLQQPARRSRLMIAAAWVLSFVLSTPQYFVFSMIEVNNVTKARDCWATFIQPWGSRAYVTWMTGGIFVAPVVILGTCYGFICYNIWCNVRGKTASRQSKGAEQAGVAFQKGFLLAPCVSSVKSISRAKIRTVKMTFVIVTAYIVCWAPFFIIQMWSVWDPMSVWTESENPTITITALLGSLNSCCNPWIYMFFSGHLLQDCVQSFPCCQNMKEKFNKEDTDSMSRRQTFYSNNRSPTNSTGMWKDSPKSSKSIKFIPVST
Chain of Vasoactive intestinal polypeptide receptor 1 (Homo sapiens) (P32241 whole entry): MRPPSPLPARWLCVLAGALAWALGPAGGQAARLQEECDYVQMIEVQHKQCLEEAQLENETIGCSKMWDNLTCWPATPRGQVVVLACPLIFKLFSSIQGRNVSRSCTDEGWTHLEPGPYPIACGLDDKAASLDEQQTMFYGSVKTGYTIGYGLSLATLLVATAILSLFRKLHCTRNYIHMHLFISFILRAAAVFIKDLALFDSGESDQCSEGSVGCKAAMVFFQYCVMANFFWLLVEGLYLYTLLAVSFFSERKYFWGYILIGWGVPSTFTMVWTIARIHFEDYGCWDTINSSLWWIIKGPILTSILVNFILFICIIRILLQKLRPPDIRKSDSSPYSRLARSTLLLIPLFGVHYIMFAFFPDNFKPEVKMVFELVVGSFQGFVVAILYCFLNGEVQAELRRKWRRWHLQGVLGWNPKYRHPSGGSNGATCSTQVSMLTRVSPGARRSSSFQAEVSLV

Compound | Activity (Embryonic stem cell) | inhibition [1] [%] | inhibition [2] [%] | inhibition [3] [%] | inhibition [4] [%] | inhibition [5] [%] | inhibition [6] [%] | inhibition [7] [%] | inhibition [8] [%] | inhibition [9] [%] | inhibition [10] [%] | inhibition [11] [%] | inhibition [12] [%] | inhibition (Homo sapiens [13]) [%] | inhibition [14] [%] | inhibition [15] [%] | inhibition (Homo sapiens [16]) [%] | inhibition (Rattus norvegicus) [%] | inhibition [17] [%] | inhibition [18] [%] | also measured
Clc1cc2c(NC3CCCC3)nnc(-c3ccncc3)c2cc1Cl | Active | 98 | 98 | 74 | 62 | 51 | 26 | 21 | 14 | 10 | 7 | 6 | 5 | 4 | 4 | 3 | 3 | 2 | 1 | -1 | inhibition [19]: -1%; inhibition [20]: -5%; inhibition [21]: -8%; inhibition [22]: 39%; inhibition [23]: 32%; inhibition [24]: 20%; inhibition [25]: 17%; inhibition [26]: 11%; inhibition [27]: 8%; inhibition [28]: 6%; inhibition [29]: 4%; inhibition [30]: 1%; inhibition [31]: 1%; inhibition [32]: 1%; inhibition [33]: -2%; inhibition [34]: -3%; inhibition [35]: -3%
O=C(c1nnc(NC2CCCC2)c2cc(Cl)c(Cl)cc12)N1CCC(O)CC1 | inactive | 55 | 22 | 27 | 45 | 6 | 11 | 10 | -1 | -7 | -2 | -3 | -7 | 6 | 96 | -8 | -5 | 5 | 3 | -5 | inhibition [19]: -4%; inhibition [20]: -4%; inhibition [21]: -5%; inhibition [22]: 81%; inhibition [23]: -4%; inhibition [24]: 17%; inhibition [25]: 2%; inhibition [26]: 22%; inhibition [27]: 13%; inhibition [28]: -4%; inhibition [29]: -8%; inhibition [30]: 0%; inhibition [31]: -1%; inhibition [32]: -2%; inhibition [33]: -1%; inhibition [34]: -9%; inhibition [35]: -7%
